For 82 compounds, RP-LC retention time results are on record in the METLIN SMRT retention time set (Domingo-Almenara et al. 2019).

The nature of the data set: gradient 5% acetonitrile 3 min, to 50% in 2 min, to 85% in 15 min, held 3 min, 100 µL/min. As to conditions: column: Zorbax Extend-C18 2.1 x 50 mm; eluents: water / acetonitrile, 0.1% formic acid. The gist of the method:
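Data were gathered over 3 months by HPLC coupled to a quadrupole time-of-flight mass spectrometer, operated in positive and negative ionization mode. Mixtures of ~100 pure standards ran on a Zorbax Extend-C18 column (2.1 × 50 mm, 1.8 μm) at 100 μL/min, with water and acetonitrile each containing 0.1% formic acid and dead and dwell volumes of 40 μL and 900 μL. Retention time was read from adduct peaks picked by computer and checked manually.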
As to `Cc1noc2nc(CCC(=O)NCCCN3CCc4ccccc4C3)nc(N3CCOCC3)c12`, the RP-LC retention time amounted to 605 s. On to `CCCNC(=O)C1CCN(c2ccc(SCC(=O)Nc3cc(C)c(Cl)cc3OC)nn2)CC1`, for which the RP-LC retention time came out at 766 s. Regarding `CCCNc1cc(N2CCC(CCC(=O)NCc3c(C)nn(C)c3C)CC2)ncn1`, the RP-LC retention time was found to be 594 s. `Cc1cc(C)cc(N2CCC(NC(=O)NC(C)C)C2=O)c1` (configuration not stated) registered an RP-LC retention time of 736 s. On to `CCc1onc(C)c1C1CCCN1C(=O)CCc1ccc(OC)cc1` (configuration not stated), for which the RP-LC retention time was found to be 839 s. In the case of `COC(=O)c1c(C)[nH]c(C(=O)N2CCC(CC(=O)NCc3ccc4c(c3)OCO4)CC2)c1C`, the RP-LC retention time was determined as 770 s. With `Cc1cccc(NC(=O)Cn2ccc3ccc(-c4nnc(C)o4)cc32)c1`, the RP-LC retention time worked out at 814 s. Regarding `CCn1cc(-c2nc(C)c(C(=O)Nc3ccccc3C)s2)c2cccnc21`, the RP-LC retention time came out at 980 s.

For `CC(C)(C)OC(=O)N1CCN(c2ncc(C(=O)Nc3ccccc3)c(N)n2)CC1`, the RP-LC retention time amounted to 760 s. In turn, `CCc1ccc(-c2nc(-c3ccc4c(c3)N(CC)C(=O)CO4)no2)cc1` had an RP-LC retention time of 1320 s. In turn, `Cc1nnc2ccc(S(=O)(=O)Nc3ccc(Cl)cc3)cn12` displayed an RP-LC retention time of 711 s. For `O=S(=O)(Cc1ccc(F)cc1)NCC1(c2ccc(F)cc2)CC1` the value was 700 s. The compound `CC(C)N1CCN(C(=O)C2CC(=O)N(CCc3ccccc3)C2)CC1` (configuration not stated) showed an RP-LC retention time of 573 s. Take `CCN(CC)C(=O)c1ccc2c(c1)N(Cc1ccc(F)cc1)C(=O)CO2`: the RP-LC retention time amounted to 826 s.

The compound `Cc1ccc(-c2csc(NC(=O)CCCOc3ccccc3C)n2)cc1` displayed an RP-LC retention time of 1300 s. In the case of `Cc1cc(C(=O)NCCCSC2CCCCC2)n(-c2ccccc2)n1` it was 1030 s. On to `COc1ccc(C2C(=O)N(C3CCCCC3)CC(=O)N2Cc2ccc3c(c2)OCO3)cc1` (configuration not stated), for which the RP-LC retention time came to 893 s. The compound `COc1ccc(Cl)cc1S(=O)(=O)N1CCCC(C(=O)NCCCOC(C)C)C1` (configuration not stated) registered an RP-LC retention time of 855 s.

In the case of `COc1ccc(-c2csc(NC(=O)CSc3nc(C)cc(C)n3)n2)cc1`, the RP-LC retention time was 979 s. For `Cc1ccc(C)c(N2C(=O)CN(S(C)(=O)=O)CC2(C)C(=O)NCc2ccc(F)cc2)c1` (configuration not stated) the value was 840 s; for `O=C1CC(c2ccccc2)N(Cc2ccc3c(c2)CCO3)CCCCCCN1` (configuration not stated), 668 s; for `Cc1ccc(NC(=O)Cc2nnc(-c3cnccn3)o2)cc1F`, 714 s. The compound `CCn1cc(C(=O)Nc2ccc(F)c(Cl)c2)c2cccnc21` displayed an RP-LC retention time of 965 s. The compound `Cc1cccc(NC(=O)C2CCN(S(=O)(=O)c3cc(C(=O)N4CCOCC4)cs3)CC2)n1` yielded an RP-LC retention time of 648 s. `COc1cc(F)ccc1-c1ccnc2nc(-c3cccs3)nn12`: the RP-LC retention time was 918 s. `CCN1CCN(C2CCN(C(=O)c3cc(C)cc(C)c3)CC2)C1=O` returned an RP-LC retention time of 728 s. The compound `CCn1ccc(C(=O)N2CCCC2c2ccccc2C)n1` (configuration not stated) had an RP-LC retention time of 870 s. For `CCCC(NC(=O)c1cc(F)cc(F)c1)C(=O)Nc1nc2ccccc2[nH]1` (configuration not stated) the value was 733 s; for `O=C(NCc1ccco1)Nc1ccccc1Cl`, 766 s; for `O=C(C1CC1)N1CCCn2nc(-c3ccccc3)cc2C1`, 739 s. Turning to `CCCC(=O)Nc1nnc(SCc2nnc(-c3ccccc3)o2)s1`, the RP-LC retention time worked out at 779 s. For the compound `CCOc1cc(C(=O)N2CCN(c3cc(=O)n(C)c(=O)n3C)CC2)cc(OCC)c1OCC`, the RP-LC retention time is 730 s. On to `CCOc1c(C)cc(S(=O)(=O)NCC2(O)CCOCC2)cc1C`, for which the RP-LC retention time is 690 s.

For the compound `COC(=O)c1c(NCc2ccccc2)c2cccc(Cl)c2[nH]c1=O`, the RP-LC retention time stood at 786 s. Take `CN(C)c1ccc(CCNC(=O)C(=O)NCc2ccc3c(c2)OCO3)cc1`: the RP-LC retention time was determined as 577 s.

`NC(=O)COc1c(F)cc(SCCNS(=O)(=O)c2ccccc2)cc1F` gave an RP-LC retention time of 847 s.

In turn, `CCn1cnc(S(=O)(=O)N2CCCC(C(=O)Nc3cccc(C)c3C)C2)c1` (configuration not stated) registered an RP-LC retention time of 754 s. In turn, `COc1ccc(C(=O)N2CCC3(CC2)NC(=O)c2ccc(Cl)cc2N3)c(C)c1` showed an RP-LC retention time of 800 s. The compound `Cn1ncc2c3ccccc3n(CCCC(=O)NCCCN3CCOCC3)c2c1=O` displayed an RP-LC retention time of 593 s. Regarding `COc1ccc(-c2nc(NCCC3=CCCCC3)c3ccccc3n2)cc1`, the RP-LC retention time was determined as 933 s. With `COc1ccc(NC(=O)CCc2c(C)nn(-c3cc(N(C)C)ncn3)c2C)cc1Cl`, the RP-LC retention time was 822 s. `Cc1nc(-c2ccccc2)cc2nn(CC(=O)NCc3ccc(F)cc3F)c(=O)n12` came in with an RP-LC retention time of 902 s.

`CCn1cnc(S(=O)(=O)N2CCC(C(=O)NCc3ccc(N(C)C)cc3)CC2)c1` registered an RP-LC retention time of 567 s.

The compound `CCc1nc2c(=O)n(CC(=O)N3CCN(c4cc(C)ccc4C)CC3)nc(C)c2s1` displayed an RP-LC retention time of 911 s. Take `Cc1ccc(-c2cn3c(CC(=O)NC4CCCCCC4)csc3n2)cc1C`: the RP-LC retention time was found to be 894 s. For `Cc1cc(N2CCCCC2)nc(NCCNS(=O)(=O)N(C)C)n1`, the RP-LC retention time stood at 570 s.

`CN(C)C(=O)N1CCC(c2nc(CCOc3ccc(F)cc3)no2)C1` (configuration not stated) gave an RP-LC retention time of 767 s. For `O=C(NCc1nc(-c2ccc3oc(-c4ccccc4)nc3c2)no1)c1ccccc1`, the RP-LC retention time came to 1010 s.

`COc1ccc2c(c1)c(CN1CCOCCNC(=O)CC1)cn2C` returned an RP-LC retention time of 598 s. For the compound `NC(=O)C1CCN(C(=O)c2c[nH]c3c(C(F)(F)F)cccc3c2=O)CC1`, the RP-LC retention time amounted to 572 s. In the case of `N#Cc1nc(-c2cccs2)oc1N1CCN(C(=O)c2ccco2)CC1` it was 789 s; in that of `Cc1cc(C)cc(NC(=O)N2CC(n3cnnc3-c3ccccc3)C2)c1`, 722 s; in that of `O=C(CSc1n[nH]c(-c2ccc(F)cc2)n1)Nc1ccc(F)cc1F`, 853 s. As for `Cc1ncsc1CN1CC(c2ncc(C)n2Cc2ccccc2)C1`, the RP-LC retention time is 559 s. In the case of `Cn1cc(C(=O)N2CCC(N(Cc3ccccc3)C3CCOCC3)CC2)cn1` it was 573 s; in that of `CCS(=O)(=O)N1CC(=O)N(c2cccc(C)c2C)C(C)(C(=O)NCc2ccccc2)C1` (configuration not stated), 807 s.

In the case of `O=C(Cn1c(=O)c2cc(C3CC3)nn2c2ncccc21)Nc1ccc(F)c(F)c1`, the RP-LC retention time was determined as 792 s. Regarding `COc1ccc(CNC2=NCCNC23CCN(S(=O)(=O)c2ccc(C(C)(C)C)cc2)CC3)cc1`, the RP-LC retention time worked out at 844 s. For the compound `Cc1cccc(NC(=O)Cn2c(=O)nc(N3CCC(C)CC3)c3ccccc32)c1C`, the RP-LC retention time was determined as 909 s. Take `CC(=O)c1ccc(NC(=O)c2cnc(-c3ccccc3)nc2-c2ccncc2)cc1`: the RP-LC retention time stood at 795 s.

The compound `O=C(NC1CCN(c2cc(-c3ccc(F)cc3)[nH]n2)C1)c1ccccc1Br` (configuration not stated) yielded an RP-LC retention time of 668 s. Regarding `COc1ccc(NC(=O)c2c[nH]c3ncccc23)c(C)c1`, the RP-LC retention time was found to be 657 s. The compound `CCOC(=O)N1CCC(NC(=O)CCc2cc3cc(C)ccc3[nH]c2=O)CC1` displayed an RP-LC retention time of 677 s.

`Cc1ccc2c(C(=O)O)cc(NC(=O)C(C)C)cc2n1` returned an RP-LC retention time of 563 s. Compound `O=C1CC(NC(=O)c2cc(C3CC3)on2)CN1` (configuration not stated) gave an RP-LC retention time of 563 s.

`COc1ccccc1CNS(=O)(=O)c1cc2n(c1)CCN(C(C)C)C2=O` came in with an RP-LC retention time of 784 s. In the case of `COc1cccc2sc(N(CCCN(C)C)C(=O)c3cccc(C(F)(F)F)c3)nc12` it was 622 s; in that of `COc1ccc(NC(=O)N2CCN(c3nc4ccccc4n3C)CC2)c(OC)c1`, 609 s. For `Cc1ccc(Cn2nccc2NC(=O)c2cc(=O)c3ccccc3o2)cc1` the value was 816 s.

Compound `Nc1c(C(=O)NCc2ccc3c(c2)OCO3)nsc1C(=O)N1CCN(c2ncccn2)CC1` showed an RP-LC retention time of 850 s.

For the compound `COc1ccc(-c2csc(NC(=O)CCCc3nc(-c4ccccc4Cl)no3)n2)cc1`, the RP-LC retention time is 1080 s. For the compound `CCOc1ccc(-c2ccc(SCC)nn2)cc1`, the RP-LC retention time amounted to 941 s. In turn, `Cc1noc(-c2ccc(=O)n(C(C)C)n2)n1` had an RP-LC retention time of 715 s.

The compound `CC(C)c1noc(-c2cc(=O)n(CC(=O)Nc3cccc(C#N)c3)c3ccccc23)n1` had an RP-LC retention time of 967 s. `C/C(=N\O)C1CC(CC(=O)O)C1(C)C` (configuration not stated): the RP-LC retention time amounted to 688 s. `O=C(NC1CCCCCCC1)C1CCN(C(=O)c2cc(-c3cccnc3)n[nH]2)CC1` yielded an RP-LC retention time of 651 s. As for `Cc1noc(-c2cccn2Cc2ccccc2F)n1`, the RP-LC retention time is 1050 s. Take `COCCNC(=O)C1CCN(c2nccc(C)n2)CC1`: the RP-LC retention time is 561 s.

Compound `Cc1ccccc1NC(=O)CN1C(=O)C2CCCCN2c2ccc(S(=O)(=O)N(C)C)cc21` (configuration not stated) returned an RP-LC retention time of 607 s. `O=c1c2ccccc2n(Cc2nc(-c3ccc(F)cc3)no2)c(=O)n1Cc1ccco1` displayed an RP-LC retention time of 1050 s. `COc1cc(-c2noc(Cc3nnc(-c4ccc(F)cc4)o3)n2)cc(OC)c1OC` yielded an RP-LC retention time of 916 s. In the case of `CN1c2ccccc2C(=O)NC12CCN(C(=O)c1ccccc1F)CC2` it was 712 s.
